This is an account of results in patent US11045475B2, “Application of methyl 4-[9-(6-aminopuryl)]-2(s)-hydroxybutyrate in preparation of medicament for treating psoriasis and vitiligo” (SHANGHAI INSTITUTE OF MATERIA MEDICA, CHINESE ACADEMY OF …, priority 2016, dated 2021).

Series [1] deals with T lymphocyte activation in spleen. Kind of series: Flow cytometry of naive and active T cells in spleen lymphocytes of imiquimod-induced psoriasis mice. The series is classed as in vivo, female balb/c mice. Conditions: after 7 days of ointment treatment, FIG. 2C-2E. The source says: (§1) FIG. 2 illustrates the inhibition of spleen swelling and T lymphocyte activation in spleen induced by imiquimod with methyl 4-[9-(6-aminopuryl)]-2(s)-hydroxybutyrate in mice. Mice models are weighed (FIG. 2A) and euthanized on Day 7 of imiquimod-induced psoriasis modeling, and spleens of the mice were weighed to calculate spleen index (FIG. 2B); naive T cells (CD3^+CD4^+CD44^−CD62L^+) ratio (FIG. 2C, 2D), and active T cells (CD3^+CD4^+CD44^+CD62L^−) ratio (FIG. 2C, 2E) are detected. *P<0.05, ***P<0.001, n≥5. The groups in FIG. 2 are the normal control group, model control group and ointment treatment group. FIG. 2C is for CD3^+CD4^+ T cells, and FIGS. 2D and 2E show the ratio of CD3^+CD4^+ T cells in all spleen lymphocytes. […]
(§2) Treatment: dorsal skin of the mice of the normal control group and model control group was applied with ointment base of 62.5 mg from Example 1 every day, and the dorsal skin of the mice of calcipotriol control group was applied with Calcipotriol Ointment of 62.5 mg every day, and the dorsal skin of the mice of ointment treatment group was applied with methyl 4-[9-(6-aminopuryl)]-2(s)-hydroxybutyrate ointment of 62.5 mg. […] Based on PASI score system, the erythema (FIG. 1A), scales (FIG. 1B) and skin thickening (FIG. 1C) of the dorsal skin were scored (0-4). […]

The target of series [2] is S-adenosyl-L-homocysteine hydrolase (SAHH) (Homo sapiens, UniProt P23526). Conditions: background statement; cited from earlier work.
Sequence of S-adenosyl-L-homocysteine hydrolase (SAHH) (P23526 whole entry, species assumed): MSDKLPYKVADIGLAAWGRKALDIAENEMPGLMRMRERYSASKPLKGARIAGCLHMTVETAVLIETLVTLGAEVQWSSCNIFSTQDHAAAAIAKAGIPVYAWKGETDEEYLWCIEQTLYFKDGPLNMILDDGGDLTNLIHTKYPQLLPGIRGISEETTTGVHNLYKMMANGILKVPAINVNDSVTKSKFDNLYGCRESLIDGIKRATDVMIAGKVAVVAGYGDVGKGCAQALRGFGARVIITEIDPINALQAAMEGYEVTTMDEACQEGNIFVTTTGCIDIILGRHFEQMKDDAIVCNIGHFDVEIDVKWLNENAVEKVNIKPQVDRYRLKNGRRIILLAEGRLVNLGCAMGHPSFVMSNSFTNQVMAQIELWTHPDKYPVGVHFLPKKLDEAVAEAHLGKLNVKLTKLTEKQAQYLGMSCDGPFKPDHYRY
The subject of series [3] is experimental autoimmune encephalomyelitis (EAE). As to conditions: animal models, background statement; cited from earlier work.
Series [4] concerns systemic lupus erythematosus (SLE). Conditions: animal models, background statement; cited from earlier work.
For another series, the system named is IL-17. Kind of series: IL-17 ELISA of damaged skin extract of imiquimod-induced psoriasis mice. As to conditions: after 7 days of ointment treatment, FIG. 3. The series is classed as in vivo, female balb/c mice.
Source text: FIG. 3 illustrates the inhibition of IL-17 level in psoriatic lesions induced by imiquimod with methyl 4-[9-(6-aminopuryl)]-2(s)-hydroxybutyrate in mice. Skin of the lesions is taken on Day 7 of imiquimod-induced psoriasis modeling, and its IL-17 content is detected by ELISA. *P<0.05, n≥5. The groups in FIG. 3 are the normal control group, model control group and ointment treatment group.
Construction of animal models with psoriasis: normal control group, model control group, calcipotriol ointment control group, ointment treatment group, n=10/group. […]
as §2
The mice were weighed when the psoriasis was more serious after 7 days of treatment; the mice were sacrificed, and the spleens of each group were removed and weighed. […] Inflammatory factor (IL-17) of the extract was detected by ELISA (FIG. 3).

Another series relates to spleen swelling. Nature of the series: Spleen weight / spleen index in imiquimod-induced psoriasis mice. The series is classed as in vivo, female balb/c mice. Conditions: after 7 days of ointment treatment, FIG. 2A, 2B.
Source text: as §1, §2

In series [5] the test system is psoriasis induced by imiquimod in mice. Nature of the series: Imiquimod-induced psoriasis in mice, ointment treatment, PASI scoring and skin lesion photographs. The series is classed as in vivo, female balb/c mice. As to conditions: 62.5 mg ointment (0.2 g per 10 g) on dorsal skin every day, observed over 15 days, FIG. 1.
Source text: Testing materials: the ointment base from Example 1; the methyl 4-[9-(6-aminopuryl)]-2(s)-hydroxybutyrate ointment from Example 2, and per 10 g of the ointment contains 0.2 g of methyl 4-[9-(6-aminopuryl)]-2(s)-hydroxybutyrate.
Modeling drug: Imiquimod Cream produced by SICHUAN MED-SHINE PHARMACEUTICAL CO., LTD.; SDA (State Drugs Administration) License No.: GUOYAOZHUNZI H20030128; Lot No.: 15060139.
Positive control drug: Calcipotriol Ointment produced by CHONGQING HUAPONT PHARM CO., LTD., SDA (State Drugs Administration) License No.: GUOYAOZHUNZI H20113541; Lot No.: 2015002.
Experimental animals: female balb/c mice with body weight of 18-22 g, provided by SHANGHAI SLAC LABORATORY ANIMAL CO., LTD. […]
as §2

For another series, the system named is cells. As to conditions: background statement; cited from earlier work.

Consider `COC(=O)C(O)CCn1cnc2c(N)ncnc21` (centres unmarked) [methyl 4-[9-(6-aminopuryl)]-2(s)-hydroxybutyrate], for which the “T lymphocyte activation (ratio of naive and active T cells in spleen lymphocytes)” value in series [1] is reported as “inhibited T lymphocyte activation in mice with psoriasis induced by imiquimod”. The “type of SAHH inhibition” value in series [2] is “type III inhibitor of SAHH”. Moreover, the “therapeutic effect on EAE” value in series [3] is reported as “good therapeutic effect”. Moreover, the “therapeutic effect on SLE” value in series [4] was “good therapeutic effect”. Further, the “level of IL-17 in the damaged skin” value in the series with IL-17 is recorded as “inhibited the level of IL-17 in the damaged skin”. In the series with spleen swelling, the “spleen swelling (spleen index)” value is reported as “improved spleen swelling in mice with psoriasis induced by imiquimod significantly”. Further, in series [5], the “PASI scores of erythema, scales, skin thickening and total score of skin lesion severity” value was “relieved psoriasis induced by imiquimod in mice effectively”. In the series with cells, the cytotoxicity entry is given as “low cytotoxicity”.
